ChEMBL document CHEMBL1201862, “PubChem BioAssay data set” (2004)
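Where inhibition never reached the appropriate level, the endpoint shown equals the highest concentration tested. Otherwise, values were interpolated linearly from a five-concentration, 48-hour dose response in 96-well plates. GI50 is the concentration that inhibits growth by half.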 Activity calls are given as the source filed them. Cut-off read from the data, not from the text of the source: active = GI50 up to about 1.1 µM and inactive = higher.

What was measured:
Experiment in all cases: NCI-60 cell line screen, 48 h
[1] = test system: 786-0
[2] = test system: A498
[3] = test system: ACHN
[4] = test system: BT-549
[5] = test system: CAKI-1
[6] = test system: CCRF-CEM
[7] = test system: COLO 205
[8] = test system: DU-145
[9] = test system: EKVX
[10] = test system: HCC 2998
[11] = test system: HCT-116
[12] = test system: HCT-15
[13] = test system: HL-60
[14] = test system: HOP-62
[15] = test system: HOP-92
[16] = test system: HT-29
[17] = test system: Hs-578T
[18] = test system: IGROV-1
[19] = test system: K562
[20] = test system: KM12
[21] = test system: LOX IMVI
[22] = test system: M14
[23] = test system: MCF7
[24] = test system: MDA-MB-231
[25] = test system: MDA-MB-435
[26] = test system: MOLT-4
[27] = test system: NCI-H226
[28] = test system: NCI-H23
[29] = test system: NCI-H460
[30] = test system: NCI/ADR-RES
[31] = test system: OVCAR-4
[32] = test system: OVCAR-8
[33] = test system: PC-3
[34] = test system: RPMI-8226
[35] = test system: RXF 393
[36] = test system: SF-268
[37] = test system: SF-295
[38] = test system: SF-539
[39] = test system: SK-MEL-28
[40] = test system: SK-MEL-2
[41] = test system: SK-MEL-5
[42] = test system: SK-OV-3
[43] = test system: SNB-19
[44] = test system: SNB-75
[45] = test system: SR
[46] = test system: SW-620
[47] = test system: T47D
[48] = test system: TK-10
[49] = test system: U-251
[50] = test system: UACC-257
[51] = test system: UACC-62
[52] = test system: UO-31
[53] = test system: A549
[54] = test system: NCI-H522
[55] = test system: OVCAR-3
[56] = test system: OVCAR-5
[57] = test system: SN12C
[58] = test system: Malme-3M

## CC(=O)Nc1ccc(-c2nc3ccccc3s2)cc1
[1]
  GI50: 24 µM (inactive)
[2]
  GI50: 13.4 µM (inactive)
[3]
  GI50: 32.4 µM (inactive)
[4]
  GI50: > 10 µM (inactive)
[5]
  GI50: 22.8 µM (inactive)
[6]
  GI50: 64.1 µM (inactive)
[7]
  GI50: 58.9 µM (inactive)
[8]
  GI50: 4.9 µM (inactive)
[9]
  GI50: 85.1 µM (inactive)
[10]
  GI50: 73.8 µM (inactive)
[11]
  GI50: 86.7 µM (inactive)
[12]
  GI50: 81.5 µM
[13]
  GI50: 81.7 µM (inactive)
[14]
  GI50: 20.9 µM (inactive)
[15]
  GI50: 55.5 µM (inactive)
[16]
  GI50: 73.1 µM (inactive)
[17]
  GI50: 40.3 µM (inactive)
[18]
  GI50: 47.6 µM (inactive)
[19]
  GI50: 1.96 µM (inactive)
[20]
  GI50: 35.3 µM (inactive)
[21]
  GI50: 36.9 µM (inactive)
[22]
  GI50: 63.1 µM (inactive)
[23]
  GI50: 67.5 µM (inactive)
[24]
  GI50: 26.8 µM (inactive)
[25]
  GI50: 97.5 µM (inactive)
[26]
  GI50: 20.2 µM (inactive)
[27]
  GI50: 44.8 µM (inactive)
[28]
  GI50: 52.1 µM (inactive)
[29]
  GI50: 36.1 µM (inactive)
[30]
  GI50: 28.7 µM (inactive)
[31]
  GI50: 29.4 µM (inactive)
[32]
  GI50: 35.4 µM (inactive)
[33]
  GI50: 64.7 µM (inactive)
[34]
  GI50: > 100 µM (inactive)
[35]
  GI50: 23.6 µM (inactive)
[36]
  GI50: 51.3 µM (inactive)
[37]
  GI50: 29.6 µM (inactive)
[38]
  GI50: 26.2 µM (inactive)
[39]
  GI50: 71.9 µM (inactive)
[40]
  GI50: 57.4 µM (inactive)
[41]
  GI50: > 100 µM (inactive)
[42]
  GI50: 21.2 µM (inactive)
[43]
  GI50: 33.4 µM (inactive)
[44]
  GI50: 30.8 µM (inactive)
[45]
  GI50: 45.6 µM (inactive)
[46]
  GI50: 53.6 µM (inactive)
[47]
  GI50: 31.1 µM (inactive)
[48]
  GI50: 57.8 µM (inactive)
[49]
  GI50: 27.5 µM (inactive)
[50]
  GI50: > 100 µM (inactive)
[51]
  GI50: 66.7 µM (inactive)
[52]
  GI50: 45.5 µM (inactive)

## CCCc1cn2c(/C=N/NC(=N)N)c(-c3cc([N+](=O)[O-])c(Cl)cc3Cl)nc2s1
[1]
  GI50: 1.58 µM (inactive)
[2]
  GI50: 1.55 µM (inactive)
[53]
  GI50: 1.48 µM (inactive)
[3]
  GI50: 1.77 µM (inactive)
[4]
  GI50: 2.15 µM (inactive)
[5]
  GI50: 1.77 µM (inactive)
[6]
  GI50: 0.216 µM (active)
[7]
  GI50: 1.48 µM (inactive)
[8]
  GI50: 1.82 µM (inactive)
[11]
  GI50: 1.32 µM (inactive)
[12]
  GI50: 1.66 µM
[13]
  GI50: 1.76 µM (inactive)
[14]
  GI50: 1.58 µM (inactive)
[15]
  GI50: 1.69 µM (inactive)
[16]
  GI50: 1.22 µM (inactive)
[17]
  GI50: 1.85 µM (inactive)
[18]
  GI50: 1.69 µM (inactive)
[19]
  GI50: 1.23 µM (inactive)
[20]
  GI50: 1.5 µM (inactive)
[21]
  GI50: 1.41 µM (inactive)
[22]
  GI50: 1.74 µM (inactive)
[23]
  GI50: 1.4 µM (inactive)
[24]
  GI50: 1.63 µM (inactive)
[25]
  GI50: 1.8 µM (inactive)
[26]
  GI50: 0.17 µM (active)
[27]
  GI50: 1.82 µM (inactive)
[28]
  GI50: 1.67 µM (inactive)
[29]
  GI50: 1.72 µM (inactive)
[54]
  GI50: 2.18 µM (inactive)
[30]
  GI50: 1.99 µM (inactive)
[55]
  GI50: 1.5 µM (inactive)
[31]
  GI50: 1.46 µM (inactive)
[56]
  GI50: 1.75 µM (inactive)
[32]
  GI50: 1.54 µM (inactive)
[33]
  GI50: 1.67 µM (inactive)
[34]
  GI50: 1.32 µM (inactive)
[35]
  GI50: 1.9 µM (inactive)
[36]
  GI50: 1.69 µM (inactive)
[37]
  GI50: 1.73 µM (inactive)
[38]
  GI50: 1.88 µM (inactive)
[40]
  GI50: 1.87 µM (inactive)
[41]
  GI50: 1.61 µM (inactive)
[42]
  GI50: 1.91 µM (inactive)
[57]
  GI50: 1.77 µM (inactive)
[43]
  GI50: 1.48 µM (inactive)
[44]
  GI50: 1.71 µM (inactive)
[45]
  GI50: 1.45 µM (inactive)
[46]
  GI50: 1.61 µM (inactive)
[47]
  GI50: 1.38 µM (inactive)
[48]
  GI50: 1.12 µM (inactive)
[49]
  GI50: 1.58 µM (inactive)
[50]
  GI50: 1.66 µM (inactive)
[51]
  GI50: 1.77 µM (inactive)
[52]
  GI50: 1.79 µM (inactive)

## COc1cc2c(cc1OC)OC(c1c(OC)ccc(OC)c1O)CC2 (configuration not stated)
[1]
  GI50: > 100 µM (inactive)
[2]
  GI50: > 100 µM (inactive)
[53]
  GI50: > 100 µM (inactive)
[3]
  GI50: 68.7 µM (inactive)
[4]
  GI50: > 100 µM (inactive)
[5]
  GI50: > 100 µM (inactive)
[6]
  GI50: 22.9 µM (inactive)
[7]
  GI50: 91.4 µM (inactive)
[8]
  GI50: > 100 µM (inactive)
[9]
  GI50: > 100 µM (inactive)
[10]
  GI50: > 100 µM (inactive)
[11]
  GI50: > 100 µM (inactive)
[12]
  GI50: > 100 µM
[13]
  GI50: 20.4 µM (inactive)
[14]
  GI50: > 100 µM (inactive)
[15]
  GI50: > 100 µM (inactive)
[16]
  GI50: > 100 µM (inactive)
[17]
  GI50: 53.8 µM (inactive)
[18]
  GI50: > 100 µM (inactive)
[19]
  GI50: > 100 µM (inactive)
[20]
  GI50: > 100 µM (inactive)
[21]
  GI50: > 100 µM (inactive)
[22]
  GI50: > 100 µM (inactive)
[23]
  GI50: 78.2 µM (inactive)
[24]
  GI50: > 100 µM (inactive)
[25]
  GI50: > 100 µM (inactive)
[26]
  GI50: 71.9 µM (inactive)
[58]
  GI50: 74 µM (inactive)
[27]
  GI50: > 100 µM (inactive)
[28]
  GI50: > 100 µM (inactive)
[29]
  GI50: > 100 µM (inactive)
[30]
  GI50: > 100 µM (inactive)
[55]
  GI50: 35.1 µM (inactive)
[31]
  GI50: 87.3 µM (inactive)
[56]
  GI50: > 100 µM (inactive)
[32]
  GI50: > 100 µM (inactive)
[33]
  GI50: > 100 µM (inactive)
[34]
  GI50: 37.2 µM (inactive)
[35]
  GI50: > 100 µM (inactive)
[36]
  GI50: > 100 µM (inactive)
[37]
  GI50: 71.3 µM (inactive)
[38]
  GI50: 73.6 µM (inactive)
[39]
  GI50: > 100 µM (inactive)
[40]
  GI50: > 100 µM (inactive)
[41]
  GI50: 76.2 µM (inactive)
[42]
  GI50: > 100 µM (inactive)
[43]
  GI50: > 100 µM (inactive)
[44]
  GI50: > 100 µM (inactive)
[45]
  GI50: > 100 µM (inactive)
[46]
  GI50: > 100 µM (inactive)
[47]
  GI50: 65.8 µM (inactive)
[48]
  GI50: 95.3 µM (inactive)
[49]
  GI50: > 100 µM (inactive)
[50]
  GI50: > 100 µM (inactive)
[51]
  GI50: > 100 µM (inactive)
[52]
  GI50: > 100 µM (inactive)
